# Columns and labels:
# [1] = Toxicity in Sprague-Dawley rat assessed as macroscopic examination at necroscopy at 250 mg/kg, po administered as single dose and measured after 14 days; type: organism-based; conditions: in vivo, 336 h, time 14 day
# [2] = Toxicity in Cynomolgus monkey assessed as animal death at 100 to 500 mg/kg, po administered as single dose; type: organism-based, Macaca fascicularis; conditions: in vivo, dose 100-500 mg/kg
# [3] = Toxicity in Sprague-Dawley rat assessed as anogenital staining at 100 mg/kg, po administered as single dose and measured after 14 days; type: organism-based; conditions: in vivo, 336 h, time 14 day
# [4] = Toxicity in Cynomolgus monkey assessed as emesis at 100 mg/kg, po administered as single dose; type: organism-based, Macaca fascicularis; conditions: in vivo
smiles,measurement,setting,value
C[C@@]1(O)[C@H](O)[C@@H](CO)O[C@H]1c1coc2c(N)ncnc12,Activity,[1],Toxic
same,Activity,[2],Non-toxic
same,Activity,[3],Non-toxic
same,Activity,[4],Non-toxic

# Reference: ChEMBL document CHEMBL6087385, “Synthesis and biological evaluation of Ribo 7-N/O/S pyrimidine 9-deaza C-nucleoside analogs as new antiviral agents for inhibiting HCV RNA-dependent RNA polymerases” (Eur J Med Chem, 2024)
